Experimental data from patent US12415939B2, “Nano-adhesive and surface primer compound and use thereof” (The Regents of the University of California, priority 2015, dated 2025).
Where “and” joins values, the source holds several entries; their conditions need not be identical. Identical values can stand only once.

Tests used:
[1] = Contact angle measurements on SAM-modified substrates; type: physicochemical; conditions: SAM-modified nano-grooved SiO2
Description: The nano-grooved SiO2 substrates passivated with Z-Cat-Ben or Z-Cat-Ben-F SAMs were prepared with the same procedure described above. For the reference substrate, the pre-cleaned and ultraviolet/ozone-treated (for 10 min) nano-grooved SiO2 substrate was passivated with n-decyltrichlorosilane (Gelest Inc.) in toluene solution (1% by volume) at 80° C. for 20 min in ambient air. Then, the substrate was subsequently sonicated in toluene and rinsed with additional toluene several times. Anhydrous chlorobenzene (50 μL) was used as a droplet dropping on the substrates. All contact angle images were taken at the direction perpendicular to nano-grooves in the substrates using Dataphysics OCA 15EC goniometer.

[2] = n-DTS-modified nano-grooved SiO2, earlier reports; cited from earlier work
[3] = QCM-D adsorption of primers; type: physicochemical
Description: A ‘static cell’ (often called ‘Open Module’) QCM-D (Q-Sense, Biolin Scientific) was employed to quantitatively evaluate the adsorption of each primer onto SiO2 surface using a quartz sensor (QSX 303, Biolin Scientific). Changes in resonance frequency (ΔF) and dissipation (ΔD) of the SiO2 were recorded and used to measure the adsorbed mass and layer viscoelasticity, respectively, of the primer deposited on the sensor. In detail, pure solvent (100 μl) was dropped onto the sensor and equilibrated for ˜20-30 min. Then, 2 wt % primer solution (100 μl) was dropped onto the sensor (this is labeled “Solution Drop-in” in FIG. 51) and equilibrated until the frequency and dissipation signals stabilized. To remove unbound primers, the sensor was rinsed with solvents (this is labeled “Solvent Rinsing” in FIG. 51) and equilibrated until frequency and dissipation signals stabilized.
Mass loss of P3 and P4 during the rinsing was negligible compared to P2 which lost 60% of initial mass, indicating outstanding adsorption efficiency of catechol-containing primers on SiO2 surfaces even compared to mussel foot protein adsorption (˜30% loss of mfp-3s^3). The priming thickness of P4 estimated by QCM-D is ˜3.1 nm which agrees with the average height of AFM images (˜3.5 nm), assuming that QCM-D measures the average thickness of a uniform layer. The smaller average thickness of P4 (˜3.1 nm) compared to the molecular contour length (˜4.8 nm) may be attributed to the flexible alkyl spacer in P4. The possibility of a softer, more flexible layer with P4 is supported by a higher change in dissipation (ΔD) compared to other primers.

[4] = Lap shear test of cured PMA resin on primed tooth enamel; set-up: species or system human
Description: (§1) 1 wt % primer solution was spread on mica, glass, tooth enamel, or a silicon wafer and incubated for 1 min, followed by thorough washing with methanol (for MDP, P1-P3) or DMSO (for P4) and drying by flowing nitrogen. The surfaces were exposed to a basic aqueous solution (pH 9, using sodium hydroxide), incubated for 1 min, and drying by flowing nitrogen (see FIG. 52). The methacrylic comonomer blend (Bis-GMA, TEGDMA, DMAEMA and CQ) was packed in a gelatin capsule (size #4, 5-mm diameter, Torpac Inc.) and placed up on top of the primer-treated substrates. The comonomer blend was cured (or crosslinked) for 1 min using a portable dental curing lamp (Foshan Liang Ya Dental Co., LY-A180, 420-480 nm, 1200-2000 mW·cm^−2) (see FIG. 53). Uniaxial compression was applied to the capsule at a rate of 0.05 inch min^−1 using a materials testing system (MTS Bionix 200) until the capsules are separated from the substrate. The lap shear fracture measurements were repeated at least 10 times for each condition.

[5] = SFA adhesion of cured PMA resin between primer-treated mica surfaces
Description: Atomically-smooth muscovite mica sheets were freshly cleaved (thickness of 2-5 μm) and attached on another large freshly cleaved mica backing sheet under a laminar flow hood and placed in a desiccator for clean storage. To ensure use of a fresh surface for each experiment, mica was peeled away from the backing sheet and glued on cylindrical disks using an epoxy glue (EPON 1004 F® from Exxon Chemicals). In each experiment, the mica surfaces were treated with one of the primer solutions, as described for the lap shear experiments, and then mounted in the SFA in a cross cylindrical geometry. In contrast to typical SFA experiments, which use an interferometric method to calculate the disk-disk separation distances and thus the interaction forces, in the SFA used here for adhesion testing, the disk separations were directly measured using semiconductor strain-gauged double cantilever springs (k=1000-10000 N/m)(see FIG. 67). After separating the surfaces, 100 […]1 of comonomer blend was injected between the two surfaces. Then, ˜600 mN of load was applied, followed by visible light curing for 1 min using the portable dental curing lamp (see FIG. 54G). Adhesion strength of cured polymer toward the mica was measured by detaching (unloading) two surfaces. All loading and unloading were performed using a coarse micrometer at the velocity of […]. The SFA measurements were repeated at least 5 times for each condition.

[6] = Lap shear test of cured PMA resin on primed silica/glass; conditions: second value of each pair (silica)
Description: as §1

[7] = AFM height profiles of adsorbed primers; type: physicochemical
Description: Each primer solution (1 wt %) was prepared in methanol (for P1-P3) or DMSO (for P4). The primer solution was drop cast onto a freshly cleaved mica or glass surface, and kept at room temperature for 1 min. Subsequently, the surfaces were thoroughly rinsed with the respective solvents and dried with argon. All images, surface profiles and surfaces roughnesses were collected using an Asylum MFP-3D standard system (Asylum Research, Santa Barbara, CA) using silicon cantilevers (FORTGG-50, Applied NanoStructures, Santa Clara, CA) (FIGS. 48C and 49).

[8] = tested on: L929 mammalian fibroblast cells; test: Cell viability assay on surface treated glass (ISO 10993); type: cell-based; conditions: primed glass surface, 3 days, trypan blue
Description: L929 mammalian fibroblast cells were purchased from the Korean Cell Line Bank (Seoul, Korea) and cultured in Roswell Park Memorial Institute (RPMI) 1640 media (Life Technologies) with 10% fetal bovine serum, 25 mM sodium bicarbonate and 1% penicillin-streptomycin. Silane-grafted and Catechol (P3) primed glass slides were prepared by following procedures described in section 6 and 3, respectively. Each glass substrate was placed on the 100π cell culture plate and sterilized by 70% ethanol solution. After equilibrated in phosphate buffered saline (PBS) and media for 5 min each, L929 cells were seeded onto the glass substrates at a density of 1×10^6 cells per plate. Cells were incubated for 3 days in 5% CO2 at 37° C. After 3 days, the substrates were transferred to new culture plates and washed extensively with PBS. Cells were then detached by 0.05% trypsin-EDTA and stained with trypan blue solution to assess cell viability. Living cells are impermeable to the stain, whereas dead cells with compromised membranes turn blue. The number of live cells was counted using a standard hemocytometer. The bare glass slide without any modification served as a control (FIGS. 56A-56B).

[9] = Lap shear test of cured PMA resin on primed mica; conditions: first value of each pair (mica)
Description: as §1

[10] = Stability of isolated compound over time (NMR observation); type: physicochemical; conditions: after isolation
Description: Attempts to increase the level of purity by either recrystallization or HPLC were unsuccessful and the compound was used “as is” for further study. It is recommended that extra care is taken to ensure that this compound be protected from atmospheric oxygen, and be used and analyzed immediately after isolation. […] Reaction time=4 days (96 hours) 69% isolated yield.

[11] = Surface forces apparatus (SFA) cohesion/adhesion between thin films on mica; type: physicochemical; conditions: symmetric films adsorbed from 5 mM, DI water, mica
Description: The interaction between two surfaces can be measured with nano-Newton level force resolution and Angstrom level resolution in the separation distance between the surfaces. The details of the SFA techniques have been describe in a work by Israelachvili et al. In a typical SFA experiment (FIG. 2C), the distance and the force between the surfaces are measured simultaneously. To begin with, the instrument is calibrated at large separation distances. When the two surfaces are not interacting, i.e., they are separated by large distances, the change in the separation between them is equal to the distance through which the motor moves the lower surface towards or away from the upper surface (or the upper surface driven by the piezo-tube moves towards the lower surface). However, once the surfaces are close enough to start interacting with each other, the measured separation distance deviates from the expected separation calibrated when there is no force between the surfaces. This deviation is due to the deflection of the double cantilever spring and is directly proportional to the force acting normally between the two opposing surfaces. Thus the normal force can be measured using Hooke's law, F=kΔx, where k is the spring constant of the double-cantilever spring and Δx=Dactual−Dapplied is the deflection of the spring, determined by taking the difference between the applied change in position of one of the surfaces Dapplied and the actual change in distance measured between the surfaces Dactual. The actual distance, Dactual, between the surfaces can be measured by multiple beam interferometry (MBI) and will be discussed below.
The distance between the surfaces, shape of the interface and the refractive index of the media between the surfaces can be accurately determined by Multiple Beam Interferometry (MBI) technique. In this technique, white light is directed through two back-silvered mica surfaces (or uniform and same thickness). As a white light passes between the mica surfaces, it undergoes interference due to the optical trap set up by the back silver on each of these surfaces giving rise to discrete wavelengths of light (FIG. 2C). These wavelengths of light are resolved in a spectrometer creating interference fringes known as ‘fringes of equal chromatic order’ (FECO). Since mica is birefringent, the FECO appears as doublets and termed as β and γ. Alternate fringes are termed as odd and even fringes with odd fringes having nodes at the center and even fringes with anti-nodes in the center. The FECO is then recorded on a camera and analyzed to determine the distance between the surfaces using the following equations: […]
The adhesion/cohesion energy of the synthetic zwitterionic molecules was investigated in SFA (SurForce LLC, Santa Barbara, CA). Two molecularly smooth freshly cleaved back silvered mica surfaces glued on cylindrical silica discs of radius of curvature, R˜2 cm, were mounted in the SFA and 50 μL of a colloidal dispersion of the synthetic molecules in DI water were injected between the surfaces at different concentrations (C=0.5-5 mM) and the forces between the thin films of the molecules were measured by Multiple Beam Interferometry (MBI). The adhesion forces between Z-Cat-C10 molecules on various surfaces, e.g., silica and copper, were also measured by AFM (MFP-3D, Asylum research, Goleta, CA) in DI water and ambient conditions, respectively, at room temperature. AFM probes with a silicon dioxide particle (10, 5, and 1 μm, respectively) on a silicon nitride (SN) cantilever-0.6 N m^−1 were purchased from Novascan Technologies, Inc (Ames, IA). Cantilever spring constants were measured for each force run. Images of Z-Cat-C10 coating on silicon wafer and copper plates were visualized in an AFM. […]

For CCCCCCCCCC[Si](Cl)(Cl)Cl [n-DTS, n-decyltrichlorosilane, reference compound], which “contact angle θ of chlorobenzene droplet” value [1] is on record?
The value was “≈ 31 °”.

What about the saturation hole mobilities [2] of the same molecule?
The saturation hole mobilities was 23-58 cm^2 V^−1 s^−1.

Which “thickness from QCM-D” value [3] does the source give for C=CC(=O)OCC(O)Cc1ccc(O)c(O)c1 (stereo not shown) [P3, 3-(3,4-dihydroxyphenyl)-2-hydroxypropyl acrylate] here?
Its value is ~1.6 nm.

What about the “mass loss during rinsing” value ([3]; of initial mass) of the same molecule?
Its value is “negligible”.

And the “lap shear strength σshear,max” value [4]?
Its value is 3.0±0.3 MPa.

What about the “Pad relative to MDP primer” value [5] of the same molecule?
Its value is ~8 times.

What about the “Pad relative to Silane primer” value [5] of the same molecule?
Its value is ~2 times.

What about the “increase in adhesion vs plain mica (no primer)” value [5] of the same molecule?
Its value is ~10 fold.

What about the “adhesion pressure Pad” value ([5]; n=5) of the same molecule?
Its value is 201.5±50.2 kPa and ~200 kPa.

What about the “lap shear strength σshear,max” value [6] of the same molecule?
Its value is 4.2±0.7 MPa.

What about the “adsorption seen by AFM” value ([7]; 1 wt.% solution, mica and glass) of the same molecule?
Its value is “densely primed”.

And the AFM height ([7]; mica)?
The AFM height was 1-2 nm.

What about the contact cytotoxicity [8] of the same molecule?
The contact cytotoxicity was “non-toxicity was confirmed”.

And the “lap shear strength σshear,max” value [9]?
The value was 0.8±0.2 MPa.

Which results are given for C[N+](C)(CCCc1ccc(O)c(O)c1)CCOP(=O)([O-])OCCCc1ccc(O)c(O)c1 [Z-Cat-Cat]?
stability over time [10]: highly susceptible to degradation over time; cohesion (or adhesion) energy Wc [11]: 8.1±1.3 mJ m^−2
